Measured values reported in PubChem BioAssay (NCI).
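Step 1: Grow cells in 96-well plates. Step 2: Expose to compound for 48 hours at 5 concentrations. Step 3: Interpolate endpoints linearly; if unreached, use highest concentration. GI50 is the concentration that inhibits growth by half. TGI: total growth inhibition.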

Columns and labels:
Assay in all cases: NCI-60 cell line screen, 48 h
A498 renal = system: A498 renal
A549 NSCLC = system: A549 NSCLC
ACHN renal = system: ACHN renal
BT-549 breast = system: BT-549 breast
CAKI-1 renal = system: CAKI-1 renal
CCRF-CEM leukemia = system: CCRF-CEM leukemia
COLO 205 colon = system: COLO 205 colon
DU-145 prostate = system: DU-145 prostate
EKVX NSCLC = system: EKVX NSCLC
HCC-2998 colon = system: HCC-2998 colon
HCT-116 colon = system: HCT-116 colon
HCT-15 colon = system: HCT-15 colon
HL-60(TB) leukemia = system: HL-60(TB) leukemia
HOP-62 NSCLC = system: HOP-62 NSCLC
HOP-92 NSCLC = system: HOP-92 NSCLC
HS 578T breast = system: HS 578T breast
HT29 colon = system: HT29 colon
IGROV1 ovarian = system: IGROV1 ovarian
K-562 leukemia = system: K-562 leukemia
KM12 colon = system: KM12 colon
LOX IMVI melanoma = system: LOX IMVI melanoma
M14 melanoma = system: M14 melanoma
MALME-3M melanoma = system: MALME-3M melanoma
MCF7 breast = system: MCF7 breast
MDA-MB-231 breast = system: MDA-MB-231 breast
MDA-MB-435 = system: MDA-MB-435
MOLT-4 leukemia = system: MOLT-4 leukemia
NCI-H226 lung = system: NCI-H226 lung
NCI-H23 lung = system: NCI-H23 lung
NCI-H460 lung = system: NCI-H460 lung
NCI-H522 lung = system: NCI-H522 lung
NCI/ADR-RES ovarian = system: NCI/ADR-RES ovarian
OVCAR-3 ovarian = system: OVCAR-3 ovarian
OVCAR-4 ovarian = system: OVCAR-4 ovarian
OVCAR-5 ovarian = system: OVCAR-5 ovarian
OVCAR-8 ovarian = system: OVCAR-8 ovarian
PC-3 prostate = system: PC-3 prostate
RPMI-8226 leukemia = system: RPMI-8226 leukemia
RXF 393 renal = system: RXF 393 renal
SF-268 CNS = system: SF-268 CNS
SF-295 CNS = system: SF-295 CNS
SF-539 CNS = system: SF-539 CNS
SK-MEL-2 melanoma = system: SK-MEL-2 melanoma
SK-MEL-28 melanoma = system: SK-MEL-28 melanoma
SK-MEL-5 melanoma = system: SK-MEL-5 melanoma
SK-OV-3 ovarian = system: SK-OV-3 ovarian
SN12C renal = system: SN12C renal
SNB-19 CNS = system: SNB-19 CNS
SNB-75 CNS = system: SNB-75 CNS
SR leukemia = system: SR leukemia
SW-620 colon = system: SW-620 colon
T-47D breast = system: T-47D breast
TK-10 renal = system: TK-10 renal
U251 CNS = system: U251 CNS
UACC-257 melanoma = system: UACC-257 melanoma
UACC-62 melanoma = system: UACC-62 melanoma
UO-31 renal = system: UO-31 renal

Compound: CC(=O)Nc1nc(C)c(-c2cc3c(c(S(C)(=O)=O)c2)C(=O)N([C@@H](C)C2CC2)C3)s1
- GI50 (A498 renal): 19 µM
- TGI (A498 renal): 53.5 µM
- GI50 (A549 NSCLC): 28 µM
- TGI (A549 NSCLC): > 100 µM
- GI50 (ACHN renal): 28.3 µM
- TGI (ACHN renal): > 100 µM
- GI50 (BT-549 breast): 29.1 µM
- TGI (BT-549 breast): > 100 µM
- GI50 (CAKI-1 renal): 17.6 µM
- TGI (CAKI-1 renal): 55.4 µM
- GI50 (CCRF-CEM leukemia): 1.18 µM
- TGI (CCRF-CEM leukemia): > 100 µM
- GI50 (COLO 205 colon): 34.9 µM
- TGI (COLO 205 colon): > 100 µM
- GI50 (DU-145 prostate): 29.5 µM
- TGI (DU-145 prostate): > 100 µM
- GI50 (EKVX NSCLC): 18.3 µM
- TGI (EKVX NSCLC): 79.9 µM
- GI50 (HCC-2998 colon): 46.7 µM
- TGI (HCC-2998 colon): > 100 µM
- GI50 (HCT-116 colon): 28.3 µM
- TGI (HCT-116 colon): > 100 µM
- GI50 (HCT-15 colon): 28.2 µM
- TGI (HCT-15 colon): > 100 µM
- GI50 (HL-60(TB) leukemia): 17.5 µM
- TGI (HL-60(TB) leukemia): > 100 µM
- GI50 (HOP-62 NSCLC): 28.2 µM
- TGI (HOP-62 NSCLC): > 100 µM
- GI50 (HOP-92 NSCLC): 15.9 µM
- TGI (HOP-92 NSCLC): 64.1 µM
- GI50 (HS 578T breast): 18.4 µM
- TGI (HS 578T breast): 64.2 µM
- GI50 (HT29 colon): 31 µM
- TGI (HT29 colon): > 100 µM
- GI50 (IGROV1 ovarian): 27.2 µM
- TGI (IGROV1 ovarian): > 100 µM
- GI50 (K-562 leukemia): 34.2 µM
- TGI (K-562 leukemia): > 100 µM
- GI50 (KM12 colon): 85 µM
- TGI (KM12 colon): > 100 µM
- GI50 (LOX IMVI melanoma): 29.1 µM
- TGI (LOX IMVI melanoma): > 100 µM
- GI50 (M14 melanoma): 28 µM
- TGI (M14 melanoma): > 100 µM
- GI50 (MALME-3M melanoma): 23.6 µM
- TGI (MALME-3M melanoma): > 100 µM
- GI50 (MCF7 breast): 23.7 µM
- TGI (MCF7 breast): > 100 µM
- GI50 (MDA-MB-231 breast): 18.6 µM
- TGI (MDA-MB-231 breast): 69.6 µM
- GI50 (MDA-MB-435): 52.4 µM
- TGI (MDA-MB-435): > 100 µM
- GI50 (MOLT-4 leukemia): 29.3 µM
- TGI (MOLT-4 leukemia): > 100 µM
- GI50 (NCI-H226 lung): 28.7 µM
- TGI (NCI-H226 lung): > 100 µM
- GI50 (NCI-H23 lung): 31.1 µM
- TGI (NCI-H23 lung): > 100 µM
- GI50 (NCI-H460 lung): 37.1 µM
- TGI (NCI-H460 lung): > 100 µM
- GI50 (NCI-H522 lung): 25.4 µM
- TGI (NCI-H522 lung): > 100 µM
- GI50 (NCI/ADR-RES ovarian): 53.6 µM
- TGI (NCI/ADR-RES ovarian): > 100 µM
- GI50 (OVCAR-3 ovarian): 30.9 µM
- TGI (OVCAR-3 ovarian): > 100 µM
- GI50 (OVCAR-4 ovarian): 29.2 µM
- TGI (OVCAR-4 ovarian): > 100 µM
- GI50 (OVCAR-5 ovarian): 29.9 µM
- TGI (OVCAR-5 ovarian): > 100 µM
- GI50 (OVCAR-8 ovarian): 39.4 µM
- TGI (OVCAR-8 ovarian): > 100 µM
- GI50 (PC-3 prostate): 31.2 µM
- TGI (PC-3 prostate): > 100 µM
- GI50 (RPMI-8226 leukemia): 17.6 µM
- TGI (RPMI-8226 leukemia): 52.9 µM
- GI50 (RXF 393 renal): 14.2 µM
- TGI (RXF 393 renal): 51.6 µM
- GI50 (SF-268 CNS): 20.4 µM
- TGI (SF-268 CNS): > 100 µM
- GI50 (SF-295 CNS): 31.6 µM
- TGI (SF-295 CNS): > 100 µM
- GI50 (SF-539 CNS): 24.2 µM
- TGI (SF-539 CNS): > 100 µM
- GI50 (SK-MEL-2 melanoma): 21.9 µM
- TGI (SK-MEL-2 melanoma): 67.7 µM
- GI50 (SK-MEL-28 melanoma): 28.1 µM
- TGI (SK-MEL-28 melanoma): > 100 µM
- GI50 (SK-MEL-5 melanoma): 18.8 µM
- TGI (SK-MEL-5 melanoma): 39.7 µM
- GI50 (SK-OV-3 ovarian): 22.2 µM
- TGI (SK-OV-3 ovarian): 56.4 µM
- GI50 (SN12C renal): 28.5 µM
- TGI (SN12C renal): > 100 µM
- GI50 (SNB-19 CNS): 65.5 µM
- TGI (SNB-19 CNS): > 100 µM
- GI50 (SNB-75 CNS): 3.11 µM
- TGI (SNB-75 CNS): 35.6 µM
- GI50 (SR leukemia): 26.8 µM
- TGI (SR leukemia): > 100 µM
- GI50 (SW-620 colon): 54.5 µM
- TGI (SW-620 colon): > 100 µM
- GI50 (T-47D breast): 10.7 µM
- TGI (T-47D breast): 45 µM
- GI50 (TK-10 renal): 20.7 µM
- TGI (TK-10 renal): 75.4 µM
- GI50 (U251 CNS): 29.5 µM
- TGI (U251 CNS): > 100 µM
- GI50 (UACC-257 melanoma): 37.7 µM
- TGI (UACC-257 melanoma): > 100 µM
- GI50 (UACC-62 melanoma): 34.8 µM
- TGI (UACC-62 melanoma): > 100 µM
- GI50 (UO-31 renal): 24.8 µM
- TGI (UO-31 renal): > 100 µM
